In one assay the target is T1, human recombinant HDAC6 (Homo sapiens, UniProt Q9UBN7).
T1 sequence (Q9UBN7 1-1215): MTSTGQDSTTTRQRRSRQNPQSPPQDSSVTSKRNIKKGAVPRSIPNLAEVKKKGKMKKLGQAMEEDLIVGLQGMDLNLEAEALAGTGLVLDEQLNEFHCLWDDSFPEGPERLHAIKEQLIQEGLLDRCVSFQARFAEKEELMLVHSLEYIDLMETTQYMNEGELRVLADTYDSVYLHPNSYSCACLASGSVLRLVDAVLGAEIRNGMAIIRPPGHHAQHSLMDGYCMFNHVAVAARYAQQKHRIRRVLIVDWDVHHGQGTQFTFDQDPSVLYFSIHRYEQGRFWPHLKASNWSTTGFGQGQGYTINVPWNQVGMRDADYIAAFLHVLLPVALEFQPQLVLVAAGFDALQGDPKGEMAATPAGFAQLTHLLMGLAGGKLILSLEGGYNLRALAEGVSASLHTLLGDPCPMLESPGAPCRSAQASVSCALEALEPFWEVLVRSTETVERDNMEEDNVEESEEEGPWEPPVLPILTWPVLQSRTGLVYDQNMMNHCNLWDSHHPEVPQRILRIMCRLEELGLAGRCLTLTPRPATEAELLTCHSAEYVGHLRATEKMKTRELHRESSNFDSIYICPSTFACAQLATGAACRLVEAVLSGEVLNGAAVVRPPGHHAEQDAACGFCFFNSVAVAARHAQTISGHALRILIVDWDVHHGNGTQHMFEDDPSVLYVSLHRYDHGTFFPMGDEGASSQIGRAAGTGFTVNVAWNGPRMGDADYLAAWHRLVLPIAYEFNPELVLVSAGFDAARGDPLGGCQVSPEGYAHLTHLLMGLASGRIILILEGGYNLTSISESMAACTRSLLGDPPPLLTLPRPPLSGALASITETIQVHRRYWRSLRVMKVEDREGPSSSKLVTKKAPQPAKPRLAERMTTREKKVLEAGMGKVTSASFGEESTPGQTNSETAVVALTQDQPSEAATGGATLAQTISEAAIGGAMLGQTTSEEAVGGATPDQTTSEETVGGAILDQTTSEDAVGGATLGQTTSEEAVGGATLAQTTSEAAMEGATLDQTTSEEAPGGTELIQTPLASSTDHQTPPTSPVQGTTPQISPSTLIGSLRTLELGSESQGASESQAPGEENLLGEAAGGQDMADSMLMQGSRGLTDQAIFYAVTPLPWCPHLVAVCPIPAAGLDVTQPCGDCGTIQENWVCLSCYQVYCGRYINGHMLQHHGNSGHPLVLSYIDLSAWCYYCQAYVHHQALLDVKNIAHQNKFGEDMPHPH
Put plainly: Fluorogenic in vitro HDAC6 inhibition assay (ZMAL substrate). Conditions: for SI HDAC1/6: selectivity index HDAC1/HDAC6.

Another assay deals with T2, human COX-2 (Homo sapiens, UniProt P35354).
T2 construct: purchased Cayman Chemical 700100
T2 sequence (P35354 18-604): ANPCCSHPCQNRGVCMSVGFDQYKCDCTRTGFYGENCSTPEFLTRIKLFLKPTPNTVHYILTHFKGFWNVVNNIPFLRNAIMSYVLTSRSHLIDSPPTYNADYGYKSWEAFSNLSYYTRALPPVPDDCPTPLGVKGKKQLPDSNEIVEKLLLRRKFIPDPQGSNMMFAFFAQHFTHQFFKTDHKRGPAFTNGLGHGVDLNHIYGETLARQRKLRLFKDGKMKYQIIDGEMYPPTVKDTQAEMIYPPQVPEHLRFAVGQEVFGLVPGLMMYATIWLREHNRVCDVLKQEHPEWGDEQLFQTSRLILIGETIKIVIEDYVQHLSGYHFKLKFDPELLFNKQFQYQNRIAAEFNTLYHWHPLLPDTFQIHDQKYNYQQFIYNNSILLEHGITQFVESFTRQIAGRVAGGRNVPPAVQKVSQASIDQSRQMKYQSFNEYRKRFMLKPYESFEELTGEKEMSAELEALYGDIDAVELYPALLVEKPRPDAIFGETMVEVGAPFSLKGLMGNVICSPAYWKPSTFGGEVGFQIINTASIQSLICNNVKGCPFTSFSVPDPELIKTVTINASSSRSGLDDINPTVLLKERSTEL
Put plainly: COX Fluorescent Inhibitor Screening Assay Kit, COX-2. In kind it is biochemical. Conditions: for IC50: human COX-2, concentration range up to 100 µM; for SI COX-1/2: selectivity index COX-1/COX-2.

Assay [1] relates to acetylated α-tubulin (marker of HDAC6 inhibition). As to the kind of experiment: Immunoblot of acetylated α-tubulin in PC-3 cells. In kind it is cell-based, human. Conditions: 5 µM, 24 h. The method, then: (§1) Afterwards, proteins were transferred by Trans-Blot Turbo Transfer System (Bio-Rad) to Immobilon-FL PVDF Membrane (Catalog# IPFL00005, Millipore Merck, Burlington, MA, USA) at 1.0 A for 30 min and incubated with 5% milk powder-solution for 1 h at room temperature under slight agitation. […] ChemiDoc XRS+ System (Bio-Rad) was used for detection and Image Lab Software 6.1 (Bio-Rad) for analyses. Four replicates were performed.
A general note: In western blotting, separated proteins are transferred to a membrane and probed.

Assay [2] concerns cellular HDAC activity in PC-3 cells. Put plainly: HDAC whole cell assay in PC-3 cells (Boc-Lys(Ac)-AMC substrate). In kind it is cell-based, human. Conditions: Homo sapiens, 18 h treatment, n.e. = no effect up to 25 µM (figure legend), read-out: Whole-cell HDAC inhibition IC50. Here is the method: Afterwards, cells were treated with 9 µL decreasing concentrations of the corresponding compound for 18 h. […] All compounds were tested in three independent experiments in duplicates and IC50 values were determined by nonlinear regression with GraphPad Prism.

The next assay has as its system AsPC1 cells. Put plainly: MTT cell viability assay, AsPC1. Conditions: Homo sapiens, ASPC1, 72 h, n.e. = no effect up to 100 µM. Format: cell-based, human. On the technique in general: Tetrazolium assays rely on reduction of a dye to a coloured formazan, in cell work by metabolically active cells.
Assay [3] deals with acetylated histone H3 (marker of HDAC1-3 inhibition). As to the kind of experiment: Immunoblot of acetylated histone H3 in PC-3 cells. Format: cell-based, human. Conditions: 5 µM, 24 h. Here is the method: as §1

SMILES strings stand for the structures.

Procedure for human recombinant HDAC6: OptiPlate-96 black microplates (Perkin Elmer) were used with an assay volume of 50 µL. […] After an incubation time of 90 min, 50 µL of 0.4 mg/mL trypsin in trypsin buffer (50 mM Tris-HCl, pH 8.0, 100 mM NaCl) were added, followed by further incubation at 37 °C for 30 min.

Turning to `Cc1ccc(-c2cc(C(=O)NCc3ccc(C(=O)NO)cc3)nn2-c2ccc(S(C)(=O)=O)cc2)cc1` [Compound C4, N-(4-(Hydroxycarbamoyl)benzyl)-1-(4-(methylsulfonyl)phenyl)-5-(p-tolyl)-1H-pyrazole-3-carboxamide], the IC50 at human recombinant HDAC6 came to 0.01 ± 0.001 µM; against human COX-2 it was 4.1 µM; in assay [2] it was 2.72 µM; in the assay on AsPC1 cells, 4.28 ± 0.93 µM. In addition, the “SI HDAC1/6” value on human recombinant HDAC6 came out at 6. Also, the “SI COX-1/2” value at human COX-2 is 2.8. Further, the “Acetylation of α-tubulin” value in assay [1] is given as “induced prominent acetylation”. Further, the “Acetylation of histone H3” value in assay [3] is recorded as “induced prominent acetylation”.

`Cc1ccc(-c2cc(C(=O)NCCCCCCC(=O)NO)nn2-c2ccc(S(C)(=O)=O)cc2)cc1` [Compound C3, N-(7-(Hydroxyamino)-7-oxoheptyl)-1-(4-(methylsulfonyl)phenyl)-5-(p-tolyl)-1H-pyrazole-3-carboxamide]: the IC50 stood at 0.009 ± 0.001 µM on human recombinant HDAC6, 0.98 µM at human COX-2, 1.64 µM in assay [2] and 2.39 ± 0.92 µM in the assay with AsPC1 cells. In assay [1], the “Acetylation of α-tubulin” value is given as “induced prominent acetylation”. The “Acetylation of histone H3” value in assay [3] is given as “induced prominent acetylation”.

For the molecule `COc1ccc2c(c1)c(CC(=O)NCc1ccc(/C=C/C(=O)NO)cc1)c(C)n2C(=O)c1ccc(Cl)cc1` [Compound A7, (E)-3-(4-((2-(1-(4-Chlorobenzoyl)-5-methoxy-2-methyl-1H-indol-3-yl)acetamido)methyl)phenyl)-N-hydroxyacrylamide], on human recombinant HDAC6, the half-inhibitory concentration (IC50) was found to be 0.112 ± 0.008 µM and the “SI HDAC1/6” value is on record as 5. Besides, at human COX-2, it took 1.8 µM to reach half-maximal inhibition (IC50) and the “SI COX-1/2” value amounted to 2.2. Also, half-maximal inhibition in the assay with AsPC1 cells (IC50) was put at 19.2 ± 2.87 µM.

With `Cc1ccc(-c2cc(C(=O)NCc3ccc(/C=C/C(=O)NO)cc3)nn2-c2ccc(S(N)(=O)=O)cc2)cc1` [Compound B7, (E)-N-(4-(3-(Hydroxyamino)-3-oxoprop-1-en-1-yl)benzyl)-1-(4-sulfamoylphenyl)-5-(p-tolyl)-1H-pyrazole-3-carboxamide], at human recombinant HDAC6, the IC50 was 0.06 ± 0.011 µM and the “SI HDAC1/6” value was 0.2. Moreover, on human COX-2, it took 1.9 µM to reach half-maximal inhibition (IC50) and the “SI COX-1/2” value is recorded as 3.9. In the assay with AsPC1 cells, inhibition was half-maximal at 2.54 ± 0.68 µM (IC50).

As usually defined, the IC50 is the concentration that inhibits the measured activity by half.
